Data as given in article PMC4868641 (Chemical research in toxicology, 2016).
Blank lines part the entries; values can stand above or below the compound they belong to.

Key:
human kidney microsomes [1] = test: P450-mediated N-oxidation in human kidney microsomes; assay type: in vitro ADME; conditions: limit of detection 50 pmol/min/mg protein
mice = conditions: cited from earlier work
[2] = pH 7.0; cited from earlier work
calf thymus DNA = test: DNA adduct formation; assay type: biochemical; conditions: 0.5 μM, calf thymus DNA 0.4 mg/mL, pH 7.4, 30 min, 37 °C
UGT1A9 [3] = target: T1, UGT1A9 (Homo sapiens, UniProt O60656); conditions: cited from earlier work
T1 sequence (O60656 26-530): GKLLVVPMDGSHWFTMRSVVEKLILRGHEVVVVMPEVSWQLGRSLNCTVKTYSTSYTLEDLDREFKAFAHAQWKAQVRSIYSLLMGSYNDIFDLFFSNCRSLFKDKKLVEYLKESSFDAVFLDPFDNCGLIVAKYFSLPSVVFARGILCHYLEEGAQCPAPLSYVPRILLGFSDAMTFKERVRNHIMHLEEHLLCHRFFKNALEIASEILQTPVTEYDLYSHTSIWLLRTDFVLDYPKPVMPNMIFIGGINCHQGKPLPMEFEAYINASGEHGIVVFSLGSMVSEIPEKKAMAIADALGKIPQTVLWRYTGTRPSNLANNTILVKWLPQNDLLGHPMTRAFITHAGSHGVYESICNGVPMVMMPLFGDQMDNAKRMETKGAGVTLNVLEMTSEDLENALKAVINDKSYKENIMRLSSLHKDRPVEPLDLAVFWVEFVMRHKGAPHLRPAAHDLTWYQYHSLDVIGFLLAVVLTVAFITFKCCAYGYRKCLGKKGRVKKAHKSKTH

[4] = test system: human microsomes (liver, kidney, colon, rectum); assay type: in vitro ADME; conditions: 1 μM, pH 7.5
UGT2B10 [5] = conditions: cited from earlier work
UGT1A1 [6] = conditions: cited from earlier work
UGT1A1 [7] = test: Inhibition of estradiol-3-O-Gluc formation in human liver microsomes; assay type: biochemical; conditions: niflumic acid 0.1-2.5 μM, estradiol 25 μM
human liver microsomes = test: Inhibition of HONH-AαC glucuronidation in human liver microsomes; assay type: biochemical; conditions: niflumic acid 0.1-2.5 μM, HONH-AαC 1 μM
[8] = test system: other UGT1A and UGT2B isoforms; conditions: cited from earlier work
UGT1A9 [9] = target: T1, UGT1A9; test: Inhibition of propofol glucuronidation in human liver microsomes; assay type: biochemical; conditions: niflumic acid 0.1-2.5 μM, propofol 100 μM
UGT2B10 [10] = conditions: cited from earlier work; remark: listed apart in the source
human kidney microsomes [11] = test: Inhibition of HONH-AαC glucuronidation in human kidney microsomes; assay type: biochemical; conditions: niflumic acid 0.1-2.5 μM, HONH-AαC 1 μM
rodents = conditions: cited from earlier work

Structure (SMILES): Nc1ccc2c(n1)[nH]c1ccccc12 [AαC, 2-Amino-9H-pyrido[2,3-b]indole]
rate of P450-mediated N-oxidation (human kidney microsomes [1]): very low
mutations and early biomarkers of neoplasia (mice; colon of mice): induces lacI mutations and aberrant crypt foci
tumor induction (mice; mice): induces liver and blood vessel tumors

Structure (SMILES): O=C(O)[C@H]1O[C@@H](ONc2ccc3c(n2)[nH]c2ccccc23)[C@H](O)[C@@H](O)[C@@H]1O [AαC-HN^2-O-Gluc, O-(β-D-glucosidurony1)-2-hydroxyamino-9H-pyrido[2,3-b]indole]
half-life [2]: exceeds 6 h

Structure (SMILES): O=C(O)[C@H]1O[C@@H](N(O)c2ccc3c(n2)[nH]c2ccccc23)[C@H](O)[C@@H](O)[C@@H]1O [AαC-HON^2-Gluc, N^2-(β-D-glucosidurony1)-2-hydroxyamino-9H-pyrido[2,3-b]indole]
DNA adduct formation (dG-C8-AαC / dG-C8-PhIP) (calf thymus DNA): considerably lower than HONH-AαC

Structure (SMILES): ONc1ccc2c(n1)[nH]c1ccccc12 [HONH-AαC, 2-hydroxyamino-9H-pyrido[2,3-b]indole]
Km (UGT1A9 [3]): 6.3 µM
DNA adduct formation (dG-C8-AαC / dG-C8-PhIP) (calf thymus DNA): comparable levels
principal Gluc conjugate formed [4]: AαC-HN^2-O-Gluc
predominant Gluc conjugate formed ([4]; 20 min): AαC-HON^2-Gluc

Structure (SMILES): Cn1c(NO)nc2ncc(-c3ccccc3)cc21 [HONH-PhIP, 2-hydroxyamino-1-methyl-6-phenylimidazo[4,5-b]pyridine]
Km (UGT2B10 [5]): 58 µM
Km (UGT1A9 [3]): 36 µM
DNA adduct formation (dG-C8-AαC / dG-C8-PhIP) (calf thymus DNA): comparable levels
Km (UGT1A1 [6]): 19 µM

inhibition of glucuronidation of propofol (UGT1A9 substrate) (UGT1A9 [9]): effective in inhibiting
Structure (SMILES): O=C(O)c1cccnc1Nc1cccc(C(F)(F)F)c1 [Niflumic acid, niflumic acid]
effect on formation of estradiol-3-O-Gluc (UGT1A1) (UGT1A1 [7]): unaffected
effect on AαC-HN^2-O-Gluc formation (human liver microsomes): concentration-dependent inhibition
effect on AαC-HON^2-Gluc formation (human liver microsomes): unchanged
effect on activities of other UGT1A and UGT2B isoforms [8]: little effect
effect on UGT2B10 activity (UGT2B10 [10]): does not alter
effect on AαC-HN^2-O-Gluc formation (human kidney microsomes [11]): greatly decreased
effect on AαC-HON^2-Gluc formation (human kidney microsomes [11]): greatly decreased

Structure (SMILES): Cn1c(N)nc2ncc(-c3ccccc3)cc21 [PhIP, 2-amino-1-methyl-6-phenylimidazo[4,5-b]pyridine]
rate of P450-mediated N-oxidation (human kidney microsomes [1]): very low
cancer induction (rodents): induces lymphoma, pancreatic, colorectal, and prostate cancers

Structure (SMILES): Cn1c(NO[C@@H]2O[C@H](C(=O)O)[C@@H](O)[C@H](O)[C@H]2O)nc2ncc(-c3ccccc3)cc21 [PhIP-HN^2-O-Gluc, O-(β-D-glucosidurony1)-2-hydroxyamino-1-methyl-6-phenylimidazo[4,5-b]pyridine]
DNA adduct formation (dG-C8-AαC / dG-C8-PhIP) (calf thymus DNA): higher amounts of dG-C8-PhIP than HONH-PhIP

Structure (SMILES): Cn1c(N(O)[C@@H]2O[C@H](C(=O)O)[C@@H](O)[C@H](O)[C@H]2O)nc2ncc(-c3ccccc3)cc21 [PhIP-HON^2-Gluc, N^2-(β-D-glucosidurony1)-2-hydroxyamino-1-methyl-6-phenylimidazo[4,5-b]pyridine]
DNA adduct formation (dG-C8-AαC / dG-C8-PhIP) (calf thymus DNA): not detected
